{"source": "patent EP4420661B1", "about": "“SMALL MOLECULES TARGETING GLYCOPROTEIN VI AS ANTIPLATELET AGENTS FOR USE IN THE PREVENTION AND/OR TREATMENT OF THROMBOSIS AND ASSOCIATED PATHOLOGIES” (Universidade de Santiago de Compostela, priority 2023, dated 2024)", "key": {"[1]": {"system": "human platelets", "assay": "platelet spreading assay on CRP (phalloidin staining, confocal microscopy)", "format": "cell-based", "conditions": "10µM; CRP 1µg/mL; Figure 4", "description": "Platelet spreading experiments were carried out to assess the potency of the compounds of formula (I), exemplified by compounds (If)and (Ih).\nPlatelets can change from a rounded, non-adherent form to adhere and flatten shape when exposed to ligands. This \"spreading\" effect can lead to the formation of cytoskeletal protein rearrangement. Platelet adhesion and extent of spreading (area covered) can be quantified.\nBriefly, human platelets from healthy individuals were isolated and washed. Then, platelets were incubated with the inhibitors at 10µM for 5 min at room temperature and then for 45 min at 37°C in coverslips coated with 1µg/mL of agonist (CRP).\nThe images of platelet shape given by phalloidin staining were acquired by confocal fluorescence microscopy and the area analyzed by ImageJ [Onselaer et al., (2020)]."}, "[2]": {"assay": "plasmatic stability, mouse plasma", "format": "in vitro ADME", "design": "unit not given beside the values", "description": "Rat, human, mouse and dog plasma pooled from healthy donors extracted in citrate tubes was employed in the assay.\n[…] Then 300µl Acetonitrile were added for precipitating plasma protein, and the plate was centrifuged at 4000 g for 60 min at 4°C.\nSupernatant was taken and analyzed by UPLC/MS/MS for sample quantification. Stationary phase: Reverse phase ACQUITY BEH C18 1.7µm 2.1x50mm (Waters) Mobile phase: 0.1% Formic acid water/0.1% formic acid in acetonitrile Gradient: Table 4: UPLC gradient / Plasmatic stability assay\nThe chromatographic equipment employed was an UPLC QSM Waters Acquity. Compound concentrations were calculated from the MS peak areas."}, "[3]": {"assay": "plasma protein binding, Rapid Equilibrium Dialysis (RED), mouse", "format": "in vitro ADME", "conditions": "4h at 37°C, (*) low recovery for (If)", "description": "(§1) Plasma from Seralab was employed in the assay and was carried out by employing Rapid Equilibrium Dialysis (RED) from Thermo Scientific.\n(§2) The compounds were dissolved at 5 µM in plasma and added to the corresponding insert of the RED device. Dialysis buffer was added to the corresponding insert of the RED device. Plate was incubated for 4h at 37°C.\n(§3) After the incubation period 50 µL aliquots of each chamber were transferred to empty vials. 50 µL of dialysis buffer were added to the plasma samples and 50 µL of plasma were added to the buffer samples. 300 µL of acetonitrile were added to all the samples and centrifuged at 4000 rpm 100 µL aliquots of the supernatants were transferred to a LC analysis plate. Samples were analyzed in a UPLC/MS/MS. Stationary phase: Acquity UPLC® BEHC18 1,7 µm (2.1 mm x 50 mm) (Waters). Gradient: A (H2O + 0.1% Formic acid); B (ACN + 0.1% Formic acid); Flow: 0.6mL/min Table 8: UPLC gradient / Protein binding assay\n(§4) The chromatographic equipment employed was an ACQUITY UPLC / Xevo TQD System. Compound concentrations were calculated from the MS peak areas. Table 9: Plasma protein binding of the compounds of formula (I) in rat, mice, dogs and humans / (*) low recovery"}, "[4]": {"system": "Plasma protein", "assay": "plasma protein binding, Rapid Equilibrium Dialysis (RED), mouse", "format": "in vitro ADME", "conditions": "5 µM, 4h at 37°C, (*) low recovery for (If)", "description": "as §1, §2, §3, §4"}}, "data": [{"compound": "O=C(Cc1ccc2c(c1)OCCO2)Nc1nc(-c2ccc3c(c2)CCC(=O)N3)cs1", "note": "[Compound (If)]", "values": [{"measurement": "platelet spreading on CRP (in words)", "setting": "[1]", "result": "inhibition of platelet spreading on CRP"}, {"measurement": "Plasmatic stability", "setting": "[2]; 10µM, t 0 min", "result": 100.0}, {"measurement": "Plasmatic stability", "setting": "[2]; 10µM, t 60 min", "result": 67.8}, {"measurement": "Plasmatic stability", "setting": "[2]; 10µM, t 120 min", "result": 41.6}, {"measurement": "Plasmatic stability", "setting": "[2]; 10µM, t 360 min", "result": 5.6}, {"measurement": "Plasmatic stability", "setting": "[2]; 100µM, t 0 min", "result": 100.0}, {"measurement": "Plasmatic stability", "setting": "[2]; 100µM, t 60 min", "result": 77.6}, {"measurement": "Plasmatic stability", "setting": "[2]; 100µM, t 120 min", "result": 57.5}, {"measurement": "Plasmatic stability", "setting": "[2]; 100µM, t 360 min", "result": 9.6}, {"measurement": "fraction unbound at 4 h, 5 µM", "setting": "[3]", "result": 0.0046}, {"measurement": "Unbound fraction", "setting": "[4]", "result": 0.46, "unit": "%"}]}]}
